# Assay results as given in patent publication US9211310B2, “Use of a Chinese medicine composition in preparing medicaments for treating secondary prevention of myocardial infarction” (TASLY PHARMACEUTICAL GROUP CO., LTD, priority 2010, dated 2015).
# Test system: patients after acute myocardial infarction
# Assay: TCM symptom score, total and single (chest pain, chest tightness, short breath, fatigue, palpitation, spontaneous perspiration, pale complexion), same clinical trial
# Format: in vivo, human
# Parameters: total score of TCM symptom, Mean / total score of TCM symptom, Min / total score of TCM symptom, Max / total score of TCM symptom, Md / change of total score of TCM symptom, Mean / change of total score of TCM symptom, Max / change of total score of TCM symptom, Md: scale not given here
# Settings: FAS
# Text: 3508 patients who were in accordance with the diagnostic standards of AMI for 28 days to 2 years and differentiated as Qi deficiency and blood stagnation syndrome by TCM were studied. 0.5 g Chinese medicine composition prepared by the method of EXAMPLE 1 (Coded as QSYQ) was administrated half an hour after meal, 3 times per day.
# They included the overall survival time, angina pectoris score, TCM symptom score and life quality score, where angina pectoris score, TCM symptom score and life quality score were evaluated at randomization, in 1st, 3rd, 6th, 9th, 12th month after treatment and 18th month after follow-up.
# The analysis method referred to the angina pectoris score.
# [1] = 6 months after treatment-baseline
# [2] = 9 months after treatment-baseline
smiles,measurement,setting,value
"CC(=O)Oc1ccccc1C(=O)O [Control group, aspirine]","change of fatigue −2, number of patients",[1],108
same,"change of fatigue −4, % of patients",[1],(0.70%)
same,"change of fatigue −4, number of patients",[1],12
same,"change of fatigue −6, % of patients",[1],(0.00%)
same,"change of fatigue −6, number of patients",[1],0
same,"change of pale complexion 0, number of patients",[1],1322
same,"change of pale complexion 0, percent of patients",[1],(77.40%)
same,"change of pale complexion 1, number of patients",[1],319
same,"change of pale complexion 1, percent of patients",[1],(18.68%)
same,"change of pale complexion −1, number of patients",[1],67
same,"change of pale complexion −1, percent of patients",[1],(3.92%)
same,"change of palpitation 0, number of patients",[1],1034
same,"change of palpitation 0, percent of patients",[1],(60.47%)
same,"change of palpitation 1, number of patients",[1],490
same,"change of palpitation 1, percent of patients",[1],(28.65%)
same,"change of palpitation 2, number of patients",[1],56
same,"change of palpitation 2, percent of patients",[1],(3.27%)
same,"change of palpitation 3, number of patients",[1],9
same,"change of palpitation 3, percent of patients",[1],(0.53%)
same,"change of palpitation −1, percent of patients",[1],(6.78%)
same,"change of palpitation −2, number of patients",[1],5
same,"change of palpitation −2, percent of patients",[1],(0.29%)
same,"change of palpitation −3, number of patients",[1],0
same,"change of palpitation −3, percent of patients",[1],(0.00%)
same,"change of short breath 0, % of patients",[1],(64.85%)
same,"change of short breath 0, number of patients",[1],1109
same,"change of short breath 2, % of patients",[1],(25.44%)
same,"change of short breath 2, number of patients",[1],435
same,"change of short breath 4, % of patients",[1],(2.98%)
same,"change of short breath 4, number of patients",[1],51
same,"change of short breath 6, % of patients",[1],(0.53%)
same,"change of short breath 6, number of patients",[1],9
same,"change of short breath −2, % of patients",[1],(5.96%)
same,"change of short breath −2, number of patients",[1],102
same,"change of short breath −4, % of patients",[1],(0.12%)
same,"change of short breath −4, number of patients",[1],2
same,"change of short breath −6, % of patients",[1],(0.12%)
same,"change of short breath −6, number of patients",[1],2
same,"change of spontaneous perspiration 0, number of patients",[1],959
same,"change of spontaneous perspiration 0, percent of patients",[1],(56.11%)
same,"change of spontaneous perspiration 1, number of patients",[1],468
same,"change of spontaneous perspiration 1, percent of patients",[1],(27.38%)
same,"change of spontaneous perspiration 2, number of patients",[1],93
same,"change of spontaneous perspiration 2, percent of patients",[1],(5.44%)
same,"change of spontaneous perspiration 3, number of patients",[1],29
same,"change of spontaneous perspiration 3, percent of patients",[1],(1.70%)
same,"change of spontaneous perspiration −1, number of patients",[1],137
same,"change of spontaneous perspiration −1, percent of patients",[1],(8.02%)
same,"change of spontaneous perspiration −2, number of patients",[1],23
same,"change of spontaneous perspiration −2, percent of patients",[1],(1.35%)
same,"change of spontaneous perspiration −3, number of patients",[1],0
same,"change of spontaneous perspiration −3, percent of patients",[1],(0.00%)
same,"change of total score of TCM symptom, Max",[1],19.00
same,"change of total score of TCM symptom, Md",[1],−3.00
same,"change of total score of TCM symptom, Mean",[1],−3.76
same,"change of total score of TCM symptom, Min",[1],−33.00
same,"distribution of total score of TCM symptom: Medium, number of patients",9 months after treatment,345
same,"distribution of total score of TCM symptom: Medium, percentage of patients",9 months after treatment,(23.03%)
same,"distribution of total score of TCM symptom: Mild, number of patients",9 months after treatment,1149
same,"distribution of total score of TCM symptom: Mild, percentage of patients",9 months after treatment,(76.70%)
same,"distribution of total score of TCM symptom: Severe, number of patients",9 months after treatment,4
same,"distribution of total score of TCM symptom: Severe, percentage of patients",9 months after treatment,(0.27%)
same,"fatigue score 0, % of patients",9 months after treatment,(33.53%)
same,"fatigue score 0, number of patients",9 months after treatment,576
same,"fatigue score 2, % of patients",9 months after treatment,(60.24%)
same,"fatigue score 2, number of patients",9 months after treatment,1035
same,"fatigue score 4, % of patients",9 months after treatment,(5.12%)
same,"fatigue score 4, number of patients",9 months after treatment,88
same,"fatigue score 6, % of patients",9 months after treatment,(1.11%)
same,"fatigue score 6, number of patients",9 months after treatment,19
same,"pale complexion score 0, number of patients",9 months after treatment,912
same,"pale complexion score 0, percent of patients",9 months after treatment,(53.08%)
same,"pale complexion score 1, number of patients",9 months after treatment,653
same,"pale complexion score 1, percent of patients",9 months after treatment,(38.01%)
same,"pale complexion score 2, number of patients",9 months after treatment,142
same,"pale complexion score 2, percent of patients",9 months after treatment,(8.27%)
same,"pale complexion score 3, number of patients",9 months after treatment,11
same,"pale complexion score 3, percent of patients",9 months after treatment,(0.64%)
same,"palpitation score 0, number of patients",9 months after treatment,581
same,"palpitation score 0, percent of patients",9 months after treatment,(33.82%)
same,"palpitation score 2, number of patients",9 months after treatment,929
same,"palpitation score 2, percent of patients",9 months after treatment,(54.07%)
same,"palpitation score 4, number of patients",9 months after treatment,179
same,"palpitation score 4, percent of patients",9 months after treatment,(10.42%)
same,"palpitation score 6, number of patients",9 months after treatment,29
same,"palpitation score 6, percent of patients",9 months after treatment,(1.69%)
same,"short breath score 0, % of patients",9 months after treatment,(28.46%)
same,"short breath score 0, number of patients",9 months after treatment,489
same,"short breath score 3, % of patients",9 months after treatment,(57.86%)
same,"short breath score 3, number of patients",9 months after treatment,994
same,"short breath score 6, % of patients",9 months after treatment,(13.21%)
same,"short breath score 6, number of patients",9 months after treatment,227
same,"short breath score 9, % of patients",9 months after treatment,(0.47%)
same,"short breath score 9, number of patients",9 months after treatment,8
same,"spontaneous perspiration score 0, number of patients",9 months after treatment,788
same,"spontaneous perspiration score 0, percent of patients",9 months after treatment,(45.87%)
same,"spontaneous perspiration score 1, number of patients",9 months after treatment,813
same,"spontaneous perspiration score 1, percent of patients",9 months after treatment,(47.32%)
same,"spontaneous perspiration score 2, number of patients",9 months after treatment,105
same,"spontaneous perspiration score 2, percent of patients",9 months after treatment,(6.11%)
same,"spontaneous perspiration score 3, number of patients",9 months after treatment,12
same,"spontaneous perspiration score 3, percent of patients",9 months after treatment,(0.70%)
same,"total score of TCM symptom, Max",9 months after treatment,37.00
same,"total score of TCM symptom, Md",9 months after treatment,8.00
same,"total score of TCM symptom, Mean",9 months after treatment,9.29
same,"total score of TCM symptom, Min",9 months after treatment,0.00
same,"change of fatigue 0, % of patients",[2],(50.53%)
same,"change of fatigue 0, number of patients",[2],864
same,"change of fatigue 2, % of patients",[2],(33.45%)
same,"change of fatigue 2, number of patients",[2],572
same,"change of fatigue 4, % of patients",[2],(7.31%)
same,"change of fatigue 4, number of patients",[2],125
same,"change of fatigue 6, % of patients",[2],(1.17%)
same,"change of fatigue 6, number of patients",[2],20
same,"change of fatigue −2, % of patients",[2],(6.73%)
same,"change of fatigue −2, number of patients",[2],115
same,"change of fatigue −4, % of patients",[2],(0.76%)
same,"change of fatigue −4, number of patients",[2],13
same,"change of fatigue −6, % of patients",[2],(0.06%)
same,"change of fatigue −6, number of patients",[2],1
same,"change of pale complexion 0, number of patients",[2],1284
same,"change of pale complexion 0, percent of patients",[2],(75.18%)
same,"change of pale complexion 1, number of patients",[2],365
same,"change of pale complexion 1, percent of patients",[2],(21.37%)
